Experimental data from PubChem BioAssay (NCI).
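All cell lines were grown in 96-well plates and treated with compound for 48 hours. TGI: total growth inhibition.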

Legend:
Assay in all cases: inhibition of tumour cell growth, NCI panel, 48 h
[1] = tested on: HCT-116 colon
[2] = tested on: PC-3 prostate
[3] = tested on: HS 578T breast
[4] = tested on: HL-60(TB) leukemia
[5] = tested on: OVCAR-3 ovarian
[6] = tested on: NCI-H23 lung
[7] = tested on: TK-10 renal
[8] = tested on: M14 melanoma
[9] = tested on: K-562 leukemia
[10] = tested on: MDA-MB-231 breast
[11] = tested on: HOP-62 NSCLC
[12] = tested on: HCT-15 colon

Measured: TGI

c1ccc2c(c1)CCCN1CCc3ccccc3C21 (configuration not stated)
> 100 µM: all assays above
